Assay results from patent US20250177477A1, “CYCLOSPORIN ANALOGUES AND USES THEREOF” (DYNEQ MEDICAL LIMITED, priority 2017, published 2025).
One block for each compound: values may come before it.

Key:
Cyclophilin A = Cyclophilin A (Homo sapiens, UniProt P62937); test: Cyclophilin inhibition binding, competitive ELISA (Cyclophilin A); conditions: human recombinant cyclophilin, read-out: CypA EC50
Experimental: (§1) The cyclophilin inhibition binding of compounds disclosed herein was determined using a competitive ELISA adapted from the methods described by Quesniaux et al. (Eur. J Immunol., 1987, 17:1359-1365). Activated ester of succinyl spacers bound to D-Lys^8-cylosporine A (D-Lys^8-Cs) are coupled to bovine serum albumin (BSA) through D-lysyl residue in position 8. BSA is dissolved in 0.1 M borate buffer, pH 9.0 (4 mg in 1.4 ml). A hundredfold molar excess of D-Lys^8-Cs dissolved in dimethyl formamide (0.6 ml) is added drop wise to the BSA under vigorous stirring. The coupling reaction is performed for 2 to 3 hours at room temperature under mild stirring and the conjugate is extensively dialyzed against phosphate-buffered saline (PBS, pH 7.4).
(§2) Microtiter Plates are coated with D-Lys^8-Cs-BSA conjugate (2 μg/ml in PBS for 24 hours at 4° C.). Plates are washed with Tween®/PBS and with PBS alone. To block nonspecific binding, 2% BSA/PBS (pH 7.4) is added to the wells and allowed to incubate for 2 hours at 37° C. […] Cyclophilin is detected with anti-cyclophilin rabbit antiserum diluted in 1% BSA containing PBS and incubates overnight at 4° C. […] Bound rabbit antibodies are then detected by goat anti-rabbit IgG conjugated to alkaline phosphatase diluted in 1% BSA-PBS and allowed to incubate for 2 hours at 37° C. […]

Cyclophilin D = Cyclophilin D (Homo sapiens, UniProt P30405); test: Cyclophilin inhibition binding, competitive ELISA (Cyclophilin D); conditions: human recombinant cyclophilin, read-out: CypD EC50
Experimental: as §1, §2

[1] = tested on: Sprague-Dawley rats with induced Acute Kidney Injury; test: Renal Ischemia-Reperfusion Induced Acute Kidney Injury in rats; assay type: in vivo, rat; conditions: for Creatinine: serum 24 hours after ligation/release
Experimental: With the exception of Group (i), i.e. the ‘sham group’, renal Ischemia-Reperfusion Induced Acute Kidney Injury (AKI) was induced in the rats by ligation of bilateral renal arteries for 30 min and then ligation was released. Animals in the control and treatment groups were administered intraperitoneal injections three times (1 h before ligation, 4 h and 8 h after ligation). Blood was taken from the animals 24 hours after the ligation/release procedure and analyzed for serum Creatinine and Blood Urea Nitrogen (BUN) concentrations, as a measure of kidney injury.

cyclophilin B = cyclophilin B (Homo sapiens, UniProt P23284); test: Cyclophilin inhibition binding, competitive ELISA (Cyclophilin B); conditions: human recombinant cyclophilin, read-out: EC50 against cyclophilin B
Experimental: as §1, with “[…] After acetone precipitation of an aliquot of the conjugated protein, no covalently bound D-Lys^8-Cs remains in the acetone solution” for “The coupling reaction is performed for 2 to 3 hours at room temperature under mild stirring”, “extent of cyclosporine covalent binding” for “conjugate”, “calculated.” for “extensively dialyzed against phosphate-buffered saline (PBS, pH 7.4).”
Microtiter Plates are coated with D-Lys^8-Cs-BSA conjugate (2 μg/ml in PBS for 24 hours at 4° C.). […] Cyclophilin is detected with anti-cyclophilin rabbit antiserum diluted in 1% BSA containing PBS and incubates overnight at 4° C. […] Bound rabbit antibodies are then detected by goat anti-rabbit IgG conjugated to alkaline phosphatase diluted in 1% BSA-PBS and allowed to incubate for 2 hours at 37° C. […] After incubation with 4-nitrophenyl phosphate (1 g/l in diethanolamine buffer, pH 9.8) for 1 to 2 hours at 37° C., the enzymatic reaction is measured spectrophotometrically at 405 nm using a spectrophotometer. […]

Cyclophilin D, sequence (P30405 30-207): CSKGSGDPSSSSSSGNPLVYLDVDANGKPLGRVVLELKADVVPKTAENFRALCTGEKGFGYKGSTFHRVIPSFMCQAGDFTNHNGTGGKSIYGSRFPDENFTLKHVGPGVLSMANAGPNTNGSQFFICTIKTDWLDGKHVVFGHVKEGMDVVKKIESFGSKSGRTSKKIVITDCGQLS
cyclophilin B, sequence (P23284 34-216): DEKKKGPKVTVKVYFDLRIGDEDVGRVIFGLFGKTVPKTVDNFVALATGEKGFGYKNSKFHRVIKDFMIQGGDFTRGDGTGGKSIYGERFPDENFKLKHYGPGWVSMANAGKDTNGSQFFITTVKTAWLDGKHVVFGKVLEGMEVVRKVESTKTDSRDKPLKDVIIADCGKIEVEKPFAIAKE
Cyclophilin A, sequence (P62937 whole entry): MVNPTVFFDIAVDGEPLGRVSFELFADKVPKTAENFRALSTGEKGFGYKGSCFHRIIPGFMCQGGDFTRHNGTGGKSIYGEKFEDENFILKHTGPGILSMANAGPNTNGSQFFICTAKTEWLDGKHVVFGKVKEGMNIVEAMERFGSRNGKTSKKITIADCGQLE

EC50 (Cyclophilin A): 61 nM | EC50 (Cyclophilin D): 2170 nM
SMILES: C/C=C/C[C@@H](C)[C@@H](O)[C@H]1C(=O)N[C@@H](CC)C(=O)N(C)[C@H](OCCNC)C(=O)N(C)[C@@H](CC(C)C)C(=O)N[C@@H](C(C)C)C(=O)N(C)[C@@H](CC(C)C)C(=O)N[C@@H](C)C(=O)N[C@H](C)C(=O)N(C)[C@@H](CC(C)C)C(=O)N(C)[C@@H](CC(C)C)C(=O)N(C)[C@@H](C(C)C)C(=O)N1C [Entry 1]

SMILES: C/C=C/C[C@@H](C)[C@@H](O)[C@H]1C(=O)N[C@@H](CC)C(=O)N(C)CC(=O)N(C)[C@@H](CC(C)C)C(=O)N[C@@H](C(C)C)C(=O)N(C)[C@@H](CC(C)C)C(=O)N[C@@H](C)C(=O)N[C@H](C)C(=O)N(C)[C@@H](CC(C)C)C(=O)N(C)[C@@H](CC(C)C)C(=O)N(C)[C@@H](C(C)C)C(=O)N1C [CsA, Cyclosporin A]
Creatinine ([1]; 3 mg/kg i.p. three times): 115 µmol/L | Blood Urea Nitrogen ([1]; 10 mg/kg i.p. three times, 24 hours after ligation/release): 42 mmol/L | Creatinine ([1]; 10 mg/kg i.p. three times): 290 µmol/L

SMILES: C/C=C/C[C@@H](C)[C@@H](O)[C@H]1C(=O)N[C@@H](CC)C(=O)N(C)[C@H](OCCN(C)C)C(=O)N(C)[C@@H](CC(C)C)C(=O)N[C@@H](C(C)C)C(=O)N(C)[C@@H](CC(C)C)C(=O)N[C@@H](C)C(=O)N[C@H](C)C(=O)N(C)[C@@H](CC(C)C)C(=O)N(C)[C@@H](CC(C)C)C(=O)N(C)[C@@H](C(C)C)C(=O)N1C [Compound 1]
EC50 (cyclophilin B): < 100 nM
